Target: T1, Sortase family protein (Staphylococcus aureus, UniProt Q9S446)
T1 sequence (Q9S446 whole entry): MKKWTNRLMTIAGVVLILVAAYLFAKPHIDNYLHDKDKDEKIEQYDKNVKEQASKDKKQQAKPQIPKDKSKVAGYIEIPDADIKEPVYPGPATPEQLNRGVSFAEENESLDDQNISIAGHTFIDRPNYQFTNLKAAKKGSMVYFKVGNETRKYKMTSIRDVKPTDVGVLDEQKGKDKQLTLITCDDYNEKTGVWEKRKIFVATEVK
Assay: Inhibition of Staphylococcus aureus ATCC 6538p SortA expressed in Escherichia coli using Dabcyl-QALPETGEE-Edans as substrate after 1 hr by fluorescence spectrophotometric method

O=C(O)c1cc[c]([Hg][OH])cc1
IC50: 25 µM
